Experimental data from paper PMC3433420 (PLoS ONE, 2012).
Residues, ends and D or L forms follow the SMILES beside them.

Columns and labels:
[1] = molecular target: T1, PLCG1-C SH2 domain (Homo sapiens, UniProt P19174); test: biochemical; format: binding; details: FP, PLCG1-C; mean; NA = no interaction detected
T1 construct: The 6X His-tagged SH2 domain proteins used in the assay, PLCG1-C, SHC4, VAV2; thioredoxin; made in house; host or cells: E. coli BL21(DE3)pLysS
T1 sequence (P19174 668-756 limits assumed): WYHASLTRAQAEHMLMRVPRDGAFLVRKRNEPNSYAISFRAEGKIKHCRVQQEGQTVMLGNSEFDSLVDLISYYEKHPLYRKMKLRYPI

[2] = molecular target: T2, PIK3R3-C SH2 domain (Homo sapiens, UniProt Q92569); test: biochemical; format: binding; details: FP, PIK3R3-C; mean; NA = no interaction detected
T2 construct: thioredoxin; made in house; host or cells: E. coli BL21(DE3)pLysS

[3] = molecular target: T1, PLCG1-C SH2 domain; test: Surface plasmon resonance (Biacore 3000); format: binding; details: SPR, NA = no interaction detected
Experimental: (§1) All SPR experiments were performed using Biacore 3000 (GE HealthCare, Piscataway, NJ) instrumentation. 6X His-tagged SH2 domain proteins were immobilized on a nitriloacetic acid (NTA) sensor chip (GE HealthCare, Piscataway, NJ) charged with Ni^2+ ions. Dye-free ErbB family peptides were applied to the sensor chip in a single flow cell in solution phase (while the other flow cell was used as a reference control) and binding events were measured under equilibrium conditions. FP false positive [drawing 7] (FPR), false discovery [drawing 8] (FDR), and false negative [drawing 9] (FNR) rates were calculated by defining true positives (TP) as interactions detected by both FP and SPR, true negatives (TN) as interactions detected by neither FP nor SPR; false positives as interactions identified by FP but not validated by SPR; and false negatives (FN) as interactions missed by FP but detected by SPR. Additional details for all methods are provided in the Supplementary Methods.
(§2) A randomly selected set of 12 recombinant SH2 domain proteins and unlabeled (rhodamine dye free) peptides (9 ErbB, 2 GAB1, 2 KIT, 2 MET) were generated for the surface plasmon resonance (SPR) validation study. The 6X His-tagged SH2 domain proteins used in the assay, PLCG1-C, SHC4, VAV2, TNS3, PIK3R3-C, SYK-C, PIK3R1-N, SUPT6H, CRKL, TEC, SHB, and SHC3 were produced and purified as previously described (see “SH2 and PTB domain proteins” section and Jones et al., 2006). Fresh protein stocks were generated so as to avoid bias incurred from proteins previously used in the FP assays. 13-mer peptides corresponding to ErbB1 pY801, ErbB1 pY900, ErbB1 pY978, ErbB1 pY1069, ErbB2 pY685, ErbB pY803, ErbB3 pY912, ErbB4 pY833, ErbB4 pY906, GAB1 pY183, GAB1 pY472, KIT pY570, KIT pY936, MET pY1093 and MET pY1313, were synthesized successfully for the assay using previously described approaches (see “FP competitor peptide synthesis” section). For SPR detection via the Biacore 3000 (GE HealthCare, Piscataway, NJ), His-tagged SH2 domains were immobilized on Biacore NTA sensor chips (GE HealthCare, Piscataway, NJ) pre-charged with Ni^2+ ions in one flow cell while the second served as a negative control reference cell. Peptides were introduced in solution phase to both cells and relative response units (RUs) were recorded from output sensograms. Nine concentrations of peptide and a buffer control, in duplicate, were used to determine KDs using the equilibrium method (best-fit simultaneous modeling for peptide association and disassociation curves).

[4] = molecular target: T2, PIK3R3-C SH2 domain; test: Surface plasmon resonance (Biacore 3000); format: binding; details: SPR, NA = no interaction detected
Experimental: as §1, §2

[5] = molecular target: T3, TNS3 SH2 domain (Homo sapiens, UniProt Q68CZ2); test: FP saturation binding assay; details: FP saturation assay; Tensin family SH2 domains
T3 sequence (Q68CZ2 1172-1282 limits assumed): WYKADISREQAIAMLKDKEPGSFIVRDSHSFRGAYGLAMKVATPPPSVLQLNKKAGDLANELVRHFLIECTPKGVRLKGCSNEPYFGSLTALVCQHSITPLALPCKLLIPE

[6] = system: 93 human SH2 domains and 2 phosphotyrosine binding (PTB) domains; test: FP saturation binding assay, whole domain panel (protein named per line or not at all)
Experimental: (See Figure 1A) Rhodamine-labeled peptides were dissolved in assay buffer (20 mM HEPES, 100 mM KCl, 0.1% Tween-20, 5 mM DTT, pH 7.8), diluted to a concentration of 20 nM, and plated into black 384-well plates (Corning, Corning, NY) at 5 µL/well using a Perkin Elmer EP3 pipetting workstation (V&P Scientific, Inc., San Diego, CA). SH2, PTB, and thioredoxin control proteins were plated into the first column of 2 mL 96-well plates (Corning) at a concentration of 20 µM and serially diluted 1∶2 into freezing buffer (300 mM NaCl, 50 mM Na2PO4, pH 8, 20% glycerol v/v) eleven times using a Tecan Freedom EVO 100 workstation (Tecan, Männedorf, Switzerland). For the interaction assay, 5 µL of each of the twelve protein concentrations was added to the peptide-containing 384-well plates via the EP3 resulting in a protein dilution range of 0.002–10 µM and a final volume of 10 µL; peptide concentration was fixed at 10 nM. Peptide/protein samples were incubated for 20 minutes at room temperature in the dark and fluorescence polarization (FP) was measured in an Analyst GT multimode reader (Molecular Devices, Sunnyvale, CA) with excitation and emission wavelengths of 530 nm and 555 nm, respectively. Experimental values were output as millipolarization (mP) units and imported into MATLAB (The MathWorks, Inc., Natick, MA) in which equation (1) was used to determine dissociation constants (KDs) for each protein/peptide pairing by least squares nonlinear regression. [drawing 1] (1)
To scale up the number of interaction measurements while minimizing variation introduced by human intervention, we utilized an automated robotic platform (Figure 1A; see experimental procedures and Supplementary Methods) to transfer, incubate, and measure the fluorescence polarization (FP) induced from interactions of a titration series of SH2 domains with synthetic rhodamine-labeled ErbB phosphopeptides. Experimental values were output as millipolarization (mP) units and equation (1) was used to fit apparent midpoint dissociation constants (KDs) for each protein/peptide pair using non-linear regression (see experimental procedures).
For this interaction analysis, we synthesized and queried the interaction of phosphopeptides corresponding to 89 of 92 ErbB family intracellular tyrosines with 93 SH2 domains. Because nine peptide sequences share 100% identity between the receptors in the 4 to 7 amino acids C-terminal to the phosphorylated tyrosine, our peptide set consisted of 81 phosphopeptides corresponding to the 89 unique tyrosine containing sequences (Table S2). This peptide set represents a 50% increase over the three PM studies performed to date. We were therefore able to obtain a more systematic and unbiased view of the relative SH2 domain recruitment potential of each receptor. Although most ErbB receptor auto-phosphorylation sites have been detected frequently by mass spectrometry because of their high relative modification stoichiometry, non-auto-phosphorylation sites have been reported less frequently in the literature (Table S3). We reasoned that many physiologically relevant and uncharacterized ErbB tyrosines of low phosphorylation stoichiometry may exist and that our comprehensive interaction analysis might implicate their importance in mediating physiological interactions. We tested the majority of interactions (7099/8160 (87.0%); Figure S3) three or more times and reported standard error for all interactions that were detected in at least three FP runs (Table S4). […] Analysis of this polarization data may be useful for inferring how SH2 proteins bind to different peptide sequences. Larger proteins and proteins binding closer to the N-terminal rhodamine tag of a given peptide would be expected to induce higher maximal polarization (the calculated maximal polarization value at infinite protein concentration) than proteins binding farther from the tag. In addition to phosphopeptides, we queried a representative set of 27 non-phosphopeptides against the entire domain set. […]

[7] = system: TENC1 SH2 domain; test: FP saturation binding assay; details: Tensin family SH2 domains
[8] = molecular target: T4, TNS1 SH2 domain (Homo sapiens, UniProt Q9HBL0); test: FP saturation binding assay; details: Tensin family SH2 domains
T4 sequence (Q9HBL0 1567-1676 limits assumed): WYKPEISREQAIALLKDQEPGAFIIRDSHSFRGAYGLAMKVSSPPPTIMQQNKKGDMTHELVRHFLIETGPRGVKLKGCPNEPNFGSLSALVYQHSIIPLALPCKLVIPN

[9] = molecular target: SH2 and PTB domains; details: protein SYK-N; ref Kaushansky et al. Mol Biosys 2008; cited from earlier work
Excerpt: Supplement pone.0044471.s022.xlsx, sheet "Most recent PM interactions" | column: Kd || Supplement pone.0044471.s022.xlsx, sheet "All original PM interactions" | column: Kd

affinity of recruitment of TNS3 [5] | affinity of recruitment of TENC1 [7] | affinity of recruitment of TNS1 [8] | Compound | Kd [1] [µM] | Kd [3] [µM] | also measured
 |  |  | CC(C)C[C@H](NC(=O)[C@H](CCC(=O)O)NC(=O)[C@H](Cc1c[nH]c2ccccc12)NC(=O)[C@@H](NC(=O)[C@@H](NC(=O)[C@@H](NC(=O)CNC(=O)[C@H](Cc1ccc(OP(=O)(O)O)cc1)NC(=O)[C@H](CO)NC(=O)[C@H](Cc1c[nH]c2ccccc12)NC(=O)[C@@H](NC(=O)[C@@H](N)CC(=O)O)C(C)C)C(C)C)[C@@H](C)O)C(C)C)C(=O)N[C@@H](CC(=O)O)C(=O)O [ErbB1 900] | 15.5 | 10.9 | Kd [2]: 5.83 µM; Kd [4]: 1.47 µM
 |  |  | CC[C@H](C)[C@H](NC(=O)[C@@H](NC(=O)[C@H](CC(C)C)NC(=O)[C@H](Cc1ccc(OP(=O)(O)O)cc1)NC(=O)[C@H](CCCNC(=N)N)NC(=O)[C@H](CCC(N)=O)NC(=O)[C@@H]1CCCN1C(=O)[C@@H](N)CC(=O)O)C(C)C)C(=O)N[C@@H](CCC(N)=O)C(=O)NCC(=O)N[C@@H](CC(=O)O)C(=O)N[C@@H](CCC(=O)O)C(=O)N[C@@H](CC(=O)O)C(=O)O [ErbB1 978] (HELM PEPTIDE1{D.P.Q.R.[O=C([C@H](Cc1ccc(OP(=O)(O)O)cc1)N[*:1])[*:2]].L.V.I.Q.G.D.E.D}$$$$V2.0) | 1.37 | 0.43 | 
 |  |  | CSCC[C@H](NC(=O)CNC(=O)[C@@H](N)CCCCN)C(=O)N[C@@H](CCSC)C(=O)N[C@@H](Cc1ccc(OP(=O)(O)O)cc1)C(=O)N[C@@H](CC(C)C)C(=O)N[C@@H](CCC(=O)O)C(=O)N[C@@H](CCC(=O)O)C(=O)N[C@@H](CCCNC(=N)N)C(=O)N[C@@H](CCCNC(=N)N)C(=O)N[C@@H](CC(C)C)C(=O)N[C@H](C(=O)N[C@@H](CC(=O)O)C(=O)O)C(C)C [ErbB4 833] (HELM PEPTIDE1{K.G.M.M.[O=C([C@H](Cc1ccc(OP(=O)(O)O)cc1)N[*:1])[*:2]].L.E.E.R.R.L.V.D}$$$$V2.0) | 4.73 | 3.46 | 
relatively high affinity | relatively high affinity | relatively high affinity | AKGMpYYLEEHGMd [ErbB3 pY823] |  |  | interaction with the SH2/PTB domain panel ([6]; KD <= 20 µM counted as interaction): reproducibly interacted at high affinity with many SH2 domains; SH2 domains found to interact ([6]; high-confidence interactions (Table S11, Figure S14)): interacted with Src kinase and tensin family SH2 domains
relatively high affinity | relatively high affinity | relatively high affinity | CLLDpYVREHKDNd [ErbB1 pY801] |  |  | Kd [9]: 0.56 µM
